Reference: patent publication US6566380B2, “Potassium channel inhibitors” (ICAgen, Inc., priority 2000, dated 2003)
Where two headings read alike, the source gives them in different places.

Target: Kv1.5 potassium channel (Homo sapiens, UniProt P22460)
Test: Electrophysiological studies: whole-cell patch clamp of Kv1.5 currents in CHO cells
Assay type: cell-based
Conditions: Chinese hamster ovary cells stably expressing Kv1.5, whole-cell voltage clamp
Protocol: Electrophysiological recordings of potassium currents in Chinese hamster ovary cells stably expressing the gene construct for the Kv1.5 potassium channel subunit were performed using the whole cell configuration of the patch clamp technique (Hamill et al., Pflugers Archiv 391:85, 1981). Cell lines expressing Kv1.5 were prepared using standard techniques known to those skilled in the art. Cells were plated on glass coverslips at a density of 2×10^4 cells/coverslip and used within 24-48 hours. Solutions used for electrophysiological recordings were as follows. Extracellular bathing solutions typically contain (in mM) 132 NaCl, 5.4 KCl, 1.8 CaCl2, 0.8 MgCl2, 10 HEPES, 5 glucose at pH 7.3. […] The coverslips were placed in a small chamber (volume ˜200 μl) on the mechanical stage of an inverted microscope and perfused (approximately 2 ml/min) with extracellular recording solution. Drug was applied using a series of narrow-bore glass capillary tubes (inner diameter ˜100 μm) positioned approximately 200 μm from the cell.
As soon as the current recording were stable, a compound representative of the present invention was superfused over the cell until steady-state block was observed. Using this technique, the effects of the compound on peak and steady-state current were determined at progressively increasing compound concentrations.
The testing results of selected compounds from Table 2 using this assay and the techniques described above are reported in Table 3 as the percent inhibition of Kv1.5 potassium channel currents at a single concentration of 0.1 μM.

[1] = read-out: Peak current inhibition at 0.1 μM (%)
[2] = read-out: Steady-state Current Inhibition at 0.1 μM (%)

Chain of Kv1.5 potassium channel (P22460 whole entry): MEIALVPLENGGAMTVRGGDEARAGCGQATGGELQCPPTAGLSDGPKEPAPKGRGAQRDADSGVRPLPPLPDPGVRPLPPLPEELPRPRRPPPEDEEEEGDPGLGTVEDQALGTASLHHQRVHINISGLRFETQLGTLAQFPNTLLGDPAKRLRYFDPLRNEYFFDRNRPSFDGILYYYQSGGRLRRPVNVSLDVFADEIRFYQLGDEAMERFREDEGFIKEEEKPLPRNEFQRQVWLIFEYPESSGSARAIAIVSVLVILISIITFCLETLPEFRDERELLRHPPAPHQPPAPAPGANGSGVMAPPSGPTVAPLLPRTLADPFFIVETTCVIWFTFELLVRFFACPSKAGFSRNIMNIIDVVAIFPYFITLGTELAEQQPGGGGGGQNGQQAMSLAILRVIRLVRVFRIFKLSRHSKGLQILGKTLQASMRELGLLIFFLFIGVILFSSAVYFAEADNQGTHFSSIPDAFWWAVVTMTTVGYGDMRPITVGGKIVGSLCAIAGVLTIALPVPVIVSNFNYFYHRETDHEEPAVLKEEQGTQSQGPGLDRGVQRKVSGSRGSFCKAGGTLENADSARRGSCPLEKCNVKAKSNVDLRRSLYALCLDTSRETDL

Row | inhibition at 0.1 µM [1] | inhibition at 0.1 µM [2] | SMILES
1 | 45% | 78% | C[C@@H](CC(=O)N(Cc1nccn1C)c1ccc2c(c1)[C@@H](NS(=O)(=O)c1ccccc1)CCC2)c1ccccc1 [Example 5]
2 | 84% | 97% | C[C@@H](CC(=O)N(Cc1nccn1C)c1ccc2c(c1)[C@H](NS(=O)(=O)c1cccc(Cl)c1)CCC2)c1ccccc1 [Example 17]
3 | 72% | 84% | COc1ccc(S(=O)(=O)N[C@H]2CCCc3ccc(N(Cc4nccn4C)C(=O)C[C@@H](C)c4ccccc4)cc32)cc1 [Example 18]
4 | 88% | 100% | C[C@@H](CC(=O)N(Cc1nccn1C)c1ccc2c(c1)[C@H](NS(=O)(=O)c1cccc(F)c1)CCC2)c1ccccc1 [Example 16]
5 | 52% | 64% | Cc1ncc(CN(C(=O)C[C@@H](C)c2ccccc2)c2ccc3c(c2)[C@@H](NS(=O)(=O)c2cccc(F)c2)CCC3)n1C(C)C [Example 20]
6 | 75% | 90% | Cc1cccc(CN(C(=O)C[C@@H](C)c2ccccc2)c2ccc3c(c2)[C@@H](NS(=O)(=O)c2ccccc2)CCC3)n1 [Example 23]
7 | 48% | 65% | Cc1cccc(CN(C(=O)C[C@@H](C)c2ccccc2)c2ccc3c(c2)[C@@H](NS(=O)(=O)c2ccc(F)c(Cl)c2)CCC3)n1 [Example 24]
8 | 58% | 67% | Cc1ncc(CN(C(=O)C[C@@H](C)c2ccccc2)c2ccc3c(c2)[C@@H](NS(=O)(=O)c2ccccc2)CCC3)n1C(C)C [Example 21]
9 | 53% | 61% | C[C@@H](CC(=O)N(Cc1nccn1C)c1ccc2c(c1)[C@@H](NS(=O)(=O)c1ccc(F)cc1)CCC2)c1ccccc1 [Example 9]
10 | 86% | 89% | C[C@H](CC(=O)N(Cc1nccn1C)c1ccc2c(c1)[C@@H](NS(=O)(=O)c1ccccc1)CCC2)c1ccccc1 [Example 4]
11 | 84% | 93% | C[C@H](CC(=O)N(Cc1nccn1C)c1ccc2c(c1)[C@@H](NS(=O)(=O)c1ccc(F)c(Cl)c1)CCC2)c1ccccc1 [Example 3]
12 | 76% | 91% | C[C@@H](CC(=O)N(Cc1nccn1C)c1ccc2c(c1)[C@H](NS(=O)(=O)c1ccccc1)CCC2)c1ccccc1 [Example 11]
13 | 42% | 67% | CC(CC(=O)N(Cc1nccn1C)c1ccc2c(c1)C(NS(=O)(=O)c1ccc(F)cc1)CCC2)c1ccccc1 (centres unmarked) [Example 1]
14 | 53% | 79% | C[C@@H](CC(=O)N(Cc1nccn1C)c1ccc2c(c1)[C@H](NS(=O)(=O)c1cccs1)CCC2)c1ccccc1 [Example 19]
15 | 30% | 81% | C[C@@H](CC(=O)N(Cc1nccn1C)c1ccc2c(c1)[C@@H](NS(=O)(=O)c1cccc(Cl)c1)CCC2)c1ccccc1 [Example 6]
16 | 86% | 96% | C[C@H](CC(=O)N(Cc1nccn1C)c1ccc2c(c1)[C@@H](NS(=O)(=O)c1cccc(Cl)c1)CCC2)c1ccccc1 [Example 2]
17 | 52% | 76% | C[C@@H](CC(=O)N(Cc1nccn1C)c1ccc2c(c1)[C@H](NS(=O)(=O)c1cccc(F)c1)CCC2)c1ccc(F)cc1 [Example 26]
18 | 68% | 85% | C[C@H](CC(=O)N(Cc1nccn1C)c1ccc2c(c1)[C@@H](NS(=O)(=O)c1cccc(F)c1)CCC2)c1ccccc1 [Example 12]
19 | 26% | 50% | Cc1cccc(CN(C(=O)C[C@H](C)c2ccccc2)c2ccc3c(c2)[C@H](NS(=O)(=O)c2ccccc2)CCC3)n1 [Example 25]
